Values of other authors as cited in patent US6201025A, “N-aralkylaminotetralins as ligands for the neuropeptide Y Y5 receptor” (Ortho-McNeil Pharmaceutical, Inc., priority 1999, dated 2001).

Assays:
[1] = system: forskolin-stimulated cAMP production/levels in a neuroblastoma cell line; conditions: cited from earlier work
[2] = system: animal models of learning; conditions: cited from earlier work
luteinizing hormone (LH) = conditions: rodents; cited from earlier work
food intake in rats = conditions: satiated rats; as little as one-billionth of a gram; cited from earlier work
rodents = conditions: intracerebroventricularly; cited from earlier work
live animals = conditions: icv or into the amygdala; cited from earlier work
feeding in animals = conditions: cited from earlier work
classic Y1 receptor = conditions: cited from earlier work

Substance: neuropeptide Y [NPY]
- effect on forskolin-stimulated cAMP production/levels [1]: inhibits forskolin-stimulated cAMP production/levels
- memory and performance scores [2]: improves memory and performance scores
- release of luteinizing hormone (LH) (luteinizing hormone (LH)): mediates endocrine functions such as the release of luteinizing hormone (LH)
- effect on food intake, injected directly into the CNS (food intake in rats): causes satiated rats to overeat
- anxiogenic effect (rodents): not anxiogenic
- effect in animal models of anxiety (live animals): produces anxiolytic effects

Substance: NPY2-36: NPY fragment
- feeding response (feeding in animals): potent inducer of feeding
- binding at the classic Y1 receptor (classic Y1 receptor): poor binding
